pEC50: −log10 of the molar value. Calls of active or inactive are those of the source. No cut-off for these calls is given here.
Assays:
Cannabinoid receptor 2 [1] = biological target: T1, Cannabinoid receptor 2 (Homo sapiens, UniProt P34972); assay: Agonist activity at human CB2 receptor expressed in insect Sf9 cells assessed as effect on Eu-GTP binding
Cannabinoid receptor 2 [2] = biological target: T1, Cannabinoid receptor 2; assay: Agonist activity at human CB2 receptor expressed in insect Sf9 cells assessed as effect on Eu-GTP binding relative to CP-55940
Cannabinoid receptor 1 [3] = biological target: T2, Cannabinoid receptor 1 (Homo sapiens, UniProt P21554); assay: Agonist activity at human CB1 receptor expressed in insect Sf9 cells assessed as effect on Eu-GTP binding
T2 sequence (P21554 whole entry): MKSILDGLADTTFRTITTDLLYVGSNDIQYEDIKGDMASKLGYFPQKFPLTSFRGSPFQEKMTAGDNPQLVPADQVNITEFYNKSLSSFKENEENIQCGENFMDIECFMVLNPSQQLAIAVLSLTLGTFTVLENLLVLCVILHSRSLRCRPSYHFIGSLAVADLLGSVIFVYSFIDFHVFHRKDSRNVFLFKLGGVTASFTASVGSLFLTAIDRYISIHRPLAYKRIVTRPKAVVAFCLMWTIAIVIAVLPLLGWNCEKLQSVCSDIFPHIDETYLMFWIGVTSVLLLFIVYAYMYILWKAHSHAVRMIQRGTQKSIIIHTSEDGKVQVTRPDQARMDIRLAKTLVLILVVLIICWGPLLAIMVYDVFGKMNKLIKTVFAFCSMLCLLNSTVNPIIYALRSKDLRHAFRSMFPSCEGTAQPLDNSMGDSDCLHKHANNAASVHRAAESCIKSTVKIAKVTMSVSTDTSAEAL

Cannabinoid receptor 1 [4] = biological target: T2, Cannabinoid receptor 1; assay: Agonist activity at human CB1 receptor expressed in insect Sf9 cells assessed as effect on Eu-GTP binding relative to CP-55940
[5] = Metabolic stability in rat liver microsome assessed as intrinsic clearance; assay type: ADME; conditions: liver microsomes
[6] = Metabolic stability in human liver microsome assessed as intrinsic clearance; assay type: ADME; conditions: liver microsomes
Cannabinoid receptor 2 [7] = biological target: T1, Cannabinoid receptor 2; assay: Agonist activity at human CB2 receptor assessed as inhibition of forskolin-induced increase in intracellular cAMP relative to CP-55940; assay type: functional, cell-based
Cannabinoid receptor 2 [8] = biological target: T1, Cannabinoid receptor 2; assay: Agonist activity at human CB2 receptor assessed as inhibition of forskolin-induced increase in intracellular cAMP; assay type: functional, cell-based
Cannabinoid receptor 1 [9] = biological target: T2, Cannabinoid receptor 1; assay: Agonist activity at human CB1 receptor assessed as inhibition of forskolin-induced increase in intracellular cAMP; assay type: functional, cell-based
Homo sapiens = organism: Homo sapiens; assay: Selectivity for human CB2 receptor over human CB1 receptor by on Eu-GTP binding assay
Cannabinoid receptor 1 [10] = biological target: T2, Cannabinoid receptor 1; assay: Agonist activity at human CB1 receptor assessed as inhibition of forskolin-induced increase in intracellular cAMP relative to CP-55940; assay type: functional, cell-based
Cannabinoid receptor 1 [11] = biological target: T2, Cannabinoid receptor 1; assay: Agonist activity at human CB1 receptor expressed in insect Sf9 cells assessed as effect on Eu-GTP binding at 10 uM
Cannabinoid receptor 2 [12] = biological target: T1, Cannabinoid receptor 2; assay: Agonist activity at human CB2 receptor expressed in insect Sf9 cells assessed as effect on Eu-GTP binding at 10 uM
[13] = Clearance in iv dosed rat; assay type: ADME, organism-based; conditions: in vivo

T1 sequence (P34972 whole entry): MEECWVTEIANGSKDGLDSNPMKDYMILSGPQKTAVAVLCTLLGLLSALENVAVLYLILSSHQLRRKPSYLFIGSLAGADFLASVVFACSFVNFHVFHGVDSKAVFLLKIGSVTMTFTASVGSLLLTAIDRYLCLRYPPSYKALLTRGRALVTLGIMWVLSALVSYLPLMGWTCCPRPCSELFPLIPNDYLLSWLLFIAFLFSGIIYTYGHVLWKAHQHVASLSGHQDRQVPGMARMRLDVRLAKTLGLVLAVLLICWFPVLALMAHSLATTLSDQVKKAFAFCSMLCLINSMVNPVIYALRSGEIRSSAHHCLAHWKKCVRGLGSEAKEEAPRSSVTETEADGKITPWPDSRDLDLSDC

pEC50 (Cannabinoid receptor 2 [1]) | Emax (Cannabinoid receptor 2 [2]) [%] | Emax (Cannabinoid receptor 1 [4]) [%] | Emax (Cannabinoid receptor 2 [7]) [%] | pEC50 (Cannabinoid receptor 2 [8]) | pEC50 (Cannabinoid receptor 1 [9]) | Emax (Cannabinoid receptor 1 [10]) [%] | Activity (Cannabinoid receptor 1 [11]) | Activity (Cannabinoid receptor 2 [12]) | Compound | pEC50 (Cannabinoid receptor 1 [3]) | microsomal CLint [5] [µL/min/mg] | microsomal CLint [6] [µL/min/mg] | Selectivity (Homo sapiens) | clearance [13] [mL/min/kg]
7.49 | 108 | 93 |  |  |  |  |  |  | CC1(C)CCCc2cc(N3CCC(c4nc(-c5ccc(F)cc5Cl)no4)CC3)cnc21 | 6.14 | > 399 | 380 |  | 
6.85 | 109 | 24 |  |  |  |  |  |  | Fc1ccc(-c2noc(C[C@H]3CCN(c4cnc5ccccc5c4)C3)n2)c(Cl)c1 | 5.77 | 579 | 215 |  | 
6.47 | 88 | 13 |  |  |  |  | inactive |  | CC(C)n1ccc2cc(N3CCC(c4nc(-c5ccc(F)cc5Cl)no4)CC3)cnc21 |  |  |  |  | 
7.05 | 101 | 36 | 95 | 7.77 | < 6.00 | 17 |  |  | Fc1ccc(-c2noc(C3CCN(c4cnc5ccccc5c4)CC3)n2)c(Cl)c1 | 5.52 | 80 | 92 |  | 
6.42 | 93 | 2 |  |  |  |  | inactive |  | Fc1ccc(-c2noc(C3CCN(c4ccc(Cl)c(C(F)(F)F)c4)CC3)n2)c(Cl)c1 |  |  |  |  | 
6.50 | 53 | 8 |  |  |  |  | inactive |  | c1ccc2ncc(N3CCC(c4nc(-c5ccncc5)no4)CC3)cc2c1 |  |  |  |  | 
5.80 | 77 | 4 |  |  |  |  | inactive |  | Fc1ccc(-c2noc([C@H]3CC[C@@H](Nc4cnc5ccccc5c4)C3)n2)c(Cl)c1 (racemic) |  |  |  |  | 
7.07 | 116 | 46 | 23 | < 5.70 | < 5.70 | 3 |  |  | Fc1ccc(-c2noc(C[C@@H]3CCN(c4cnc5ccccc5c4)C3)n2)c(Cl)c1 | 5.90 | 426 | 215 |  | 
 | 10 | 0.3 |  |  |  |  | inactive | inactive | O=C(O)CCc1nc(-c2ccc(F)cc2Cl)no1 |  |  |  | > 200 | 
5.81 | 87 | -1 |  |  |  |  | inactive |  | O=C(NCCc1nc(-c2ccc(F)cc2Cl)no1)c1cnc2ccccc2c1 |  |  |  | > 200 | 
5.84 | 38 | 8 |  |  |  |  | inactive |  | CC(C)c1noc(C2CCN(c3cnc4ccccc4c3)CC2)n1 |  |  |  |  | 
5.54 | 35 | 2 |  |  |  |  | inactive |  | Fc1ccc(-c2noc(C3CCN(c4ccnc5ccccc45)CC3)n2)c(Cl)c1 |  |  |  |  | 
5.81 | 89 | 8 |  |  |  |  | inactive |  | Fc1ccccc1-c1noc(C2CCN(c3cnc4ccccc4c3)CC2)n1 |  |  |  |  | 
7.00 | 110 | 8 | 0 | < 5.70 | < 5.70 | 1 | inactive |  | Fc1ccc(-c2noc([C@H]3C[C@@H]3CNc3cnc4ccccc4c3)n2)c(Cl)c1 (racemic) |  | 193 | 69 |  | 
7.59 | 113 | 105 |  |  |  |  |  |  | c1ccc2ncc(N3CCC(c4nc(C5CCCCC5)no4)CC3)cc2c1 | 6.22 | 185 | 283 |  | 

Compound | pEC50 (Cannabinoid receptor 2 [1]) | Emax (Cannabinoid receptor 2 [2]) [%] | Emax (Cannabinoid receptor 1 [4]) [%] | Emax (Cannabinoid receptor 2 [7]) [%] | pEC50 (Cannabinoid receptor 2 [8]) | pEC50 (Cannabinoid receptor 1 [9]) | Emax (Cannabinoid receptor 1 [10]) [%] | Activity (Cannabinoid receptor 1 [11]) | Activity (Cannabinoid receptor 2 [12]) | pEC50 (Cannabinoid receptor 1 [3]) | microsomal CLint [5] [µL/min/mg] | microsomal CLint [6] [µL/min/mg] | Selectivity (Homo sapiens) | clearance [13] [mL/min/kg]
Fc1ccc(-c2noc([C@@H]3CCC[C@H]3Nc3cnc4ccccc4c3)n2)c(Cl)c1 (racemic) | 6.33 | 73 | 39 |  |  |  |  |  |  | 5.65 |  |  |  | 
Fc1ccc(-c2noc(C3CCN(c4cnc5ccc(OC(F)(F)F)cc5c4)CC3)n2)c(Cl)c1 | 8.52 | 110 | 33 |  |  |  |  |  |  | 6.38 | 18 | 28 |  | 
Fc1ccc(-c2noc(C3CCN(c4cnc5c(c4)CCCC5)CC3)n2)c(Cl)c1 | 7.72 | 113 | 60 |  |  |  |  |  |  | 6.04 | 130 | 95 |  | 
CC(C)(CCc1nc(-c2ccc(F)cc2Cl)no1)Nc1cnc2ccccc2c1 | 7.28 | 52 | 70 | 93 | 7.30 | < 5.70 | 46 |  |  | 5.89 | 775 | 429 | > 200 | 
Fc1ccc(-c2noc(CCCNc3cnc4ccccc4c3)n2)c(Cl)c1 | 7.96 | 104 | 103 |  |  |  |  |  |  | 6.33 | 614 | 179 | > 200 | 
Clc1ccc(-c2noc(C3CCN(c4cnc5ccccc5c4)CC3)n2)c(Cl)c1 | 7.10 | 99 | 27 |  |  |  |  |  |  | 6.02 | 43 | 58 |  | 
Fc1ccc(-c2noc(C3CCN(c4cnc5c(C(F)(F)F)cccc5c4)CC3)n2)c(Cl)c1 | 7.80 | 106 | 34 |  |  |  |  |  |  | 7.82 | 54 | 23 |  | 
CC(CCc1nc(-c2ccc(F)cc2Cl)no1)Nc1cnc2ccccc2c1 (racemic) | 7.82 | 112 | 69 |  |  |  |  |  |  | 5.81 | > 399 | 142 | > 200 | 
Clc1ccc(-c2noc(C3CCN(c4cnc5ccccc5c4)CC3)n2)cc1 | 5.75 | 26 | 26 |  |  |  |  |  |  | 5.58 |  |  |  | 
O=C(CCc1nc(-c2ccc(F)cc2Cl)no1)Nc1cnc2ccccc2c1 | 8.70 | 115 | 51 | 98 | 8.30 | 6.25 | 49 |  |  | 6.39 | 126 | 49 | > 200 | 95
Clc1cnccc1-c1noc(C2CCN(c3cnc4ccccc4c3)CC2)n1 | 7.62 | 103 | 23 |  |  |  |  |  |  | 7.02 | 187 | 251 |  | 
